Assays:
[1] = test system: pcy mouse; assay: In vivo treatment of the pcy mouse; details: 1 mg/kg IP, three times weekly from 5-20 weeks of age, after 12 weeks of treatment
Description: The Pkd1 gene is orthologous to the gene involved in ˜85% of human ADPKD cases. […] Biol Reprod. 78(6):1139-52 (2008). If so, it could be reducing the levels of the Hsp90 client proteins, CFTR and NKCC1, both important for cyst-filling chloride secretion. Evidence is shown here that NKCC1 protein levels were reduced by GMZ treatment of metanephric kidneys in organ culture. Evidence was also shown for decreased PCNA levels, which is consistent with a general decrease in cell proliferation in these kidneys in organ culture, due probably to Hsp90 inhibition. The efficacy of GMZ on inhibition of cyst growth in vivo is currently being tested in the pcy mouse, a mouse model of nephronophthisis-3 (NPHP3) which has a slowly progressive renal cystic disease. […] Accordingly, gamendazole inhibits cell proliferation and cAMP-stimulated cyst-like expansion (in metanephric organ cultures). The mechanisms may involve: a direct and rapid inhibition of forskolin-stimulated CFTR channel activity; inhibition of Hsp90 chaperone function leading to long-term reduction of NKCC1 protein levels; or reduction of PKD proliferation pathway components. Thus, GMZ appears to be a potent inhibitor of these two important processes involved in PKD pathogenesis.

[2] = test system: ADPKD cells; assay: Mitotic index of ADPKD cells; assay type: cell-based, human; details: untreated controls 4.1%
Description: For the […] shown in FIG. 10C, 5×10^3 ADPKD cells were plated in a 4-well chamber slide. After 24 hours, medium was changed to include 5% FBS. Cells were treated with increasing concentrations of GMZ for 16 hours, fixed with 4% paraformaldehyde and permeabilized with 0.2% Triton-X100. Cells were mounted with DAPI-containing mounting medium and observed by fluorescence microscopy. Eight to ten separate fields were examined at 10× magnification and the number of mitotic figures (nuclei) were counted and expressed as a percentage of the total number of nuclei per field. Statistical analysis was done to compare the GMZ-treated cells to untreated cells at each time point using One-way ANOVA and the Tukey HSD test for pair-wise comparisons.

[3] = test system: Cdk4; assay: Western blot of treated ADPKD cells; assay type: cell-based, human; details: 50 uM
Description: (§1) Gamendazole (GMZ) was tested to determine if treatment decreases Hsp90 client protein levels in ADPKD cells. Briefly, ADPKD cells were treated with 50 μM GMZ for 24, 48 or 72 hours. Proteins from 20 μg total cell lysate were separated by SDS-PAGE, transferred to a PVDF membrane and probed with antibodies against the Hsp90 client proteins ErbB2 (185 kD), and cdk4 (34 kD).

[4] = test system: ErbB2; assay: Western blot of treated ADPKD cells; assay type: cell-based, human; details: 50 uM
Description: as §1

[5] = test system: NKCC1; assay: Immunostaining of organ culture kidney sections; assay type: cell-based, mouse; details: 1-5 uM, cAMP-treated E15.5 organ culture kidneys, images not shown
Description: To also test whether GMZ can target the Hsp90 client protein NKCC1, sections of E15.5 organ culture kidneys treated with cAMP or cAMP plus GMZ were immunostained with an antibody for NKCC1 (methods in Magenheimer, et al., 2006). […] Consistent with the known localization of NKCC1 in the kidney, the immunolabeling appeared to be decreased in the metanephric mesenchyme and collecting ducts when GMZ was used at 1-5 uM.

[6] = test system: ID8 cells (ovarian cancer); assay: ID8 cell growth in vitro; assay type: cell-based
Description: When RC-MC-110 is added to a variety of cancer cells: ovarian (ID8), taxol-resistant ovarian (ID8), prostate (LNCaP and PC-3), kidney (293).

[7] = molecular target: Hsp82 (the yeast homologue of Hsp90) (Saccharomyces cerevisiae, UniProt P02829); assay: Cross-linking of biotinylated analogue to purified protein, competition with excess RC-MC-110; assay type: binding; details: 10-fold excess of RC-MC-110, purified protein, UV cross-linking
Description: In this example, the binding of cross-linked biotinylated RC-MC-110 ([…]) to Hsp82 (the yeast homologue of Hsp90) was investigated by a cross-linking and biotinylated analogue of RC-MC-110.
The buffer solution in this examples was comprised of 50 mM Tris-HCl, pH 7.4, 50 mM NaCl, 5 mM EDTA, and 50 mM NaF.
First, the protein was diluted with the buffer solution above to give a final concentration of 0.278 mg/ml. The stock protein concentration was 22 mg/ml in 5 μl aliquots.
Next the drug was diluted as follows. Stock concentrations of RC-MC-210 (see structure below) were 0.6 mg/ml (cross-linked biotinylated analogue of RC-MC-110). A 300 μl aliquot was thawed, and separated into two 150 μl aliquots. Dilutions were in the order of 1, ½, ¼, ⅛, 1/16 of the stock solutions. The stock concentration of the competition solution was 0.6 mg/ml RC-MC-210 (549 μM), and about 0.9 mg of RC-MC-110 was dissolved in 150 μl of RC-MC-210 solution to give a final concentration of 6 mg/ml (14.5 mM).
The competition solution had the same concentration of RC-MC-210, but a 10-fold excess of RC-MC-110 (non-biotinylated) to its respective concentration (e.g: ½ RC-MC-210, then the RC-MC-110 was 10× that concentration.)
To prepare of the incubation reactions, 18 μl of protein from a 0.277 mg/ml diluted stock (about 5 μg of protein) was incubated with 2 μl of drug for 1 hr at 4° C. with gentle rocking. […]

Chain of Hsp82 (the yeast homologue of Hsp90) (P02829 whole entry): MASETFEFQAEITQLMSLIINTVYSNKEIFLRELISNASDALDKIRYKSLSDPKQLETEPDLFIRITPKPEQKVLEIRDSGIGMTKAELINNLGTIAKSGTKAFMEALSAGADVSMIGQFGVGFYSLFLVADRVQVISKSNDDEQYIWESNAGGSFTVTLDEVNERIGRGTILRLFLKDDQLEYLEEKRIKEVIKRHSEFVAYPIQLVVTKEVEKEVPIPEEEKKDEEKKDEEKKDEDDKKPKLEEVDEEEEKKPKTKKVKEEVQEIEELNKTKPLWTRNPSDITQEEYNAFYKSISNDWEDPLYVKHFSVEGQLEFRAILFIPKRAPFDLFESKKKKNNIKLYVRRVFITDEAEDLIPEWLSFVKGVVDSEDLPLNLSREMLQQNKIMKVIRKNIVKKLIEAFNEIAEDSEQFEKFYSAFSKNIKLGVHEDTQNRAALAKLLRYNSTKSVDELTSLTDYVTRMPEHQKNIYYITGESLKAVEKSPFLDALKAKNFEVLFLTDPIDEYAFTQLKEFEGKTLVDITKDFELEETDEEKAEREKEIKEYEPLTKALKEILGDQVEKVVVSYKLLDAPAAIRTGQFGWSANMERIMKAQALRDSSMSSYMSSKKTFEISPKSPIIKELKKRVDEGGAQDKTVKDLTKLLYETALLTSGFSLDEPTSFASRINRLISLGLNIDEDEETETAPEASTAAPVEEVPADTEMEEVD

SMILES | Tolerability in the pcy mouse [1] | mitotic index ([2]; 50 μM for 16 h) [%] | mitotic index ([2]; 100 μM for 16 h, p<0.01) [%] | levels of the Hsp90 client protein Cdk4 [3] | levels of the Hsp90 client protein ErbB2 [4] | NKCC1 staining [5] | Sensitivity of ID8 cell growth, compared with lonidamine [6] | Competition of the binding of the cross-linked biotinylated analogue to Hsp82 [7]
O=C(O)CCc1nn(Cc2ccc(Cl)cc2Cl)c2cc(C(F)(F)F)ccc12 [GMZ, 3-[1-(2,4-dichlorobenzyl)-6-trifluoromethyl-1H-indazol-3-yl]-propionic acid] | the treated mice appear to be tolerating GMZ | 2.6 | 1.7 | decreased levels | decreased levels | NKCC1 staining was reduced | – | –
O=C(O)/C=C/c1nn(Cc2ccc(Cl)cc2Cl)c2cc(C(F)(F)F)ccc12 [RC-MC-110, trans 3-[1-(2,4-dichlorobenzyl)-6-trifluoromethyl-1H-indazol-3-yl]-acrylic acid] | – | – | – | – | – | – | more sensitive to RC-MC-110 than lonidamine | the binding competes with excess RC-MC-110
